Laboratory results as given in ChEMBL document CHEMBL5260804 (ACS Med Chem Lett, 2017).

Assays:
[1] = molecular target: Matrix protein 2 (Influenza A virus) (UniProt P06821); assay: Inhibition of full length influenza A virus A/Udorn/72 (H3N2) M2 expressed in Xenopus laevis oocytes assessed as inhibition of channel current at 100 uM measured after 2 mins by two-electrode voltage clamp assay relative to control; format: cell-based; settings: Oocyte
[2] = molecular target: Matrix protein 2 (Influenza A virus) (UniProt P06821); assay: Inhibition of full length influenza A virus A/Udorn/72 (H3N2) M2 expressed in Xenopus laevis oocytes assessed as inhibition of channel current at 100 uM measured after 5 mins by two-electrode voltage clamp assay relative to control; format: cell-based; settings: Oocyte
Influenza A virus = assay: Antiviral activity against amantadine-sensitive influenza A virus A/Udorn/72 (H3N2) infected in MDCK cells assessed as inhibition of virus-induced cytopathic effect incubated for 48 hrs by crystal violet/neutral red staining based assay; format: functional, organism-based
[3] = molecular target: Matrix protein 2 (Influenza A virus) (UniProt P06821); assay: Binding affinity to C-terminal amidated influenza A virus A/Udorn/72 (H3N2) M2 transmembrane domain (22 to 46 residues) in DPC micelles at pH 8 assessed as change in entropy by ITC analysis
[4] = molecular target: Matrix protein 2 (Influenza A virus) (UniProt P06821); settings: A/Udorn/72 (H3N2)
Description: Binding affinity to C-terminal amidated influenza A virus A/Udorn/72 (H3N2) M2 transmembrane domain (22 to 46 residues) in DPC micelles at pH 8 assessed as gibbs free energy change by ITC analysis

[5] = molecular target: Matrix protein 2 (Influenza A virus) (UniProt P06821); settings: A/Udorn/72 (H3N2); remark: listed apart in the source
Description: Binding affinity to C-terminal amidated influenza A virus A/Udorn/72 (H3N2) M2 transmembrane domain (22 to 46 residues) in DPC micelles at pH 8 assessed as change in enthalpy by ITC analysis

Matrix protein 2 = Matrix protein 2 (Influenza A virus, UniProt P06821)
Sequence of Matrix protein 2 (P06821 whole entry): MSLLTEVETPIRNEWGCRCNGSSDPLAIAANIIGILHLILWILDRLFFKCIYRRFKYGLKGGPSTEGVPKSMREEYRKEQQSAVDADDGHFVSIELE
Description: Binding affinity to C-terminal amidated influenza A virus A/Udorn/72 (H3N2) M2 transmembrane domain (22 to 46 residues) in DPC micelles at pH 8 assessed as dissociation constant by ITC analysis

Sequence of Matrix protein 2 (Influenza A virus) (P06821 whole entry, the tested form may be a part): as the sequence (P06821 whole entry) above

SMILES | inhibition [1] [%] | inhibition [2] [%] | IC50 (Influenza A virus) [nM] | -TdeltaS [3] [kcal/mol] | deltaG [4] [kcal/mol] | deltaH [5] [kcal/mol] | Kd (Matrix protein 2) [nM]
C[C@@H](N)C12CC3CC(CC(C3)C1)C2 | 93 | 95 | 50 | -1.42 | -8.97 | -7.54 | 
C[C@H](N)C12CC3CC(CC(C3)C1)C2 | 95 | 96 | 60 | -1.15 |  | -7.73 | 
CC(N)C12CC3CC(CC(C3)C1)C2 (racemic) [RIMANTADINE] | 96 | 96 | 50 | -1.04 |  | -7.6 | 
NC12CC3CC(CC(C3)C1)C2 [AMANTADINE] |  | 95 | 330 | -1.11 | -7.77 | -6.66 | 
CC(C)(N)C12CC3CC(CC(C3)C1)C2 | 90 | 96 | 40 | -5.12 | -9.3 | -4.19 | 130
